# Measurements from ChEMBL document CHEMBL3797052 (Eur J Med Chem, 2016).
# System: not listed separately
# Assay: Antiproliferative activity against human LOXIMVI cells assessed as cell growth at 10^-5 M after 48 hrs by sulforhodamine B assay
# Type: functional
# Details: LOX IMVI, read-out: Activity
row,Compound,growth at 10 µM
1,CNC(=O)c1cc(Oc2ccc3nc(NC(=O)c4cc(C(F)(F)F)cc(C(F)(F)F)c4)sc3c2)ccn1,11%

# System: not listed separately
# Assay: Antiproliferative activity against human SF268 cells assessed as cell growth at 10^-5 M after 48 hrs by sulforhodamine B assay
# Type: functional
# Details: SF-268, 48 h, read-out: Activity
row,Compound,growth at 10 µM
1,CNC(=O)c1cc(Oc2ccc3nc(NC(=O)c4cc(C(F)(F)F)cc(C(F)(F)F)c4)sc3c2)ccn1,11%

# System: U-251
# Assay: Antiproliferative activity against human U251 cells assessed as growth inhibition after 48 hrs by sulforhodamine B assay
# Type: functional
# Details: U-251, 48 h
Compound,GI50,LC50,TGI
CNC(=O)c1cc(Oc2ccc3nc(NC(=O)c4cc(C(F)(F)F)cc(C(F)(F)F)c4)sc3c2)ccn1,3.65 µM,53.6 µM,13.7 µM

# System: not listed separately
# Assay: Antiproliferative activity against human SF539 cells assessed as cell growth at 10^-5 M after 48 hrs by sulforhodamine B assay
# Type: functional
# Details: SF-539, 48 h, read-out: Activity
row,Compound,growth at 10 µM
1,CNC(=O)c1cc(Oc2ccc3nc(NC(=O)c4cc(C(F)(F)F)cc(C(F)(F)F)c4)sc3c2)ccn1,12%

# System: SK-MEL-5
# Assay: Antiproliferative activity against human SK-MEL-5 cells assessed as cell growth at 10^-5 M after 48 hrs by sulforhodamine B assay
# Type: functional
# Details: SK-MEL-5, 48 h, read-out: Activity
row,Compound,growth at 10 µM
1,CNC(=O)c1cc(Oc2ccc3nc(NC(=O)c4cc(C(F)(F)F)cc(C(F)(F)F)c4)sc3c2)ccn1,-66%

# System: not listed separately
# Assay: Antiproliferative activity against human UACC62 cells assessed as cell growth at 10^-5 M after 48 hrs by sulforhodamine B assay
# Type: functional
# Details: UACC-62, 48 h, read-out: Activity
row,Compound,growth at 10 µM
1,CNC(=O)c1cc(Oc2ccc3nc(NC(=O)c4cc(C(F)(F)F)cc(C(F)(F)F)c4)sc3c2)ccn1,5%

# System: HT-29
# Assay: Antiproliferative activity against human HT-29 cells assessed as cell growth at 10^-5 M after 48 hrs by sulforhodamine B assay
# Type: functional
# Details: HT-29, 48 h, read-out: Activity
row,Compound,growth at 10 µM
1,CNC(=O)c1cc(Oc2ccc3nc(NC(=O)c4cc(C(F)(F)F)cc(C(F)(F)F)c4)sc3c2)ccn1,15%

# System: CCRF-CEM
# Assay: Antiproliferative activity against human CCRF-CEM cells assessed as cell growth at 10^-5 M after 48 hrs by sulforhodamine B assay
# Type: functional
# Details: read-out: Activity
row,Compound,growth at 10 µM
1,CNC(=O)c1cc(Oc2ccc3nc(NC(=O)c4cc(C(F)(F)F)cc(C(F)(F)F)c4)sc3c2)ccn1,13%

# System: A549
# Assay: Antiproliferative activity against human A549/ATCC cells assessed as cell growth at 10^-4 M after 48 hrs by sulforhodamine B assay
# Type: functional
# Details: A549, 48 h, read-out: Activity
row,Compound,growth at 100 µM
1,CNC(=O)c1cc(Oc2ccc3nc(NC(=O)c4cc(C(F)(F)F)cc(C(F)(F)F)c4)sc3c2)ccn1,-67%

# System: ACHN
# Assay: Antiproliferative activity against human ACHN cells assessed as cell growth at 10^-7 M after 48 hrs by sulforhodamine B assay
# Type: functional
# Details: read-out: Activity
row,Compound,growth at 0.1 µM
1,CNC(=O)c1cc(Oc2ccc3nc(NC(=O)c4cc(C(F)(F)F)cc(C(F)(F)F)c4)sc3c2)ccn1,100%

# System: not listed separately
# Assay: Antiproliferative activity against human PC3 cells assessed as cell growth at 10^-5 M after 48 hrs by sulforhodamine B assay
# Type: functional
# Details: PC-3, 48 h, read-out: Activity
row,Compound,growth at 10 µM
1,CNC(=O)c1cc(Oc2ccc3nc(NC(=O)c4cc(C(F)(F)F)cc(C(F)(F)F)c4)sc3c2)ccn1,5%

# System: SR
# Assay: Antiproliferative activity against human SR cells assessed as cell growth at 10^-5 M after 48 hrs by sulforhodamine B assay
# Type: functional
# Details: read-out: Activity
row,Compound,growth at 10 µM
1,CNC(=O)c1cc(Oc2ccc3nc(NC(=O)c4cc(C(F)(F)F)cc(C(F)(F)F)c4)sc3c2)ccn1,5%

# System: NCI-H522
# Assay: Antiproliferative activity against human NCI-H522 cells assessed as growth inhibition after 48 hrs by sulforhodamine B assay
# Type: functional
# Details: NCI-H522, 48 h
Compound,GI50,LC50 (concentration killing 50% of cells),TGI
CNC(=O)c1cc(Oc2ccc3nc(NC(=O)c4cc(C(F)(F)F)cc(C(F)(F)F)c4)sc3c2)ccn1,2.82 µM,64.1 µM,8.77 µM

# System: not listed separately
# Assay: Antiproliferative activity against human RXF393 cells assessed as cell growth at 10^-5 M after 48 hrs by sulforhodamine B assay
# Type: functional
# Details: RXF 393, 48 h, read-out: Activity
row,Compound,growth at 10 µM
1,CNC(=O)c1cc(Oc2ccc3nc(NC(=O)c4cc(C(F)(F)F)cc(C(F)(F)F)c4)sc3c2)ccn1,-8%

# System: ACHN
# Assay: Antiproliferative activity against human ACHN cells assessed as cell growth at 10^-5 M after 48 hrs by sulforhodamine B assay
# Type: functional
# Details: read-out: Activity
row,Compound,growth at 10 µM
1,CNC(=O)c1cc(Oc2ccc3nc(NC(=O)c4cc(C(F)(F)F)cc(C(F)(F)F)c4)sc3c2)ccn1,6%

# System: not listed separately
# Assay: Antiproliferative activity against human HL-60(TB) cells assessed as cell growth at 10^-8 M after 48 hrs by sulforhodamine B assay
# Type: functional
# Details: HL-60, 48 h, read-out: Activity
row,Compound,growth at 0.01 µM
1,CNC(=O)c1cc(Oc2ccc3nc(NC(=O)c4cc(C(F)(F)F)cc(C(F)(F)F)c4)sc3c2)ccn1,92%

# System: NCI-H23
# Assay: Antiproliferative activity against human NCI-H23 cells assessed as cell growth at 10^-5 M after 48 hrs by sulforhodamine B assay
# Type: functional
# Details: NCI-H23, 48 h, read-out: Activity
row,Compound,growth at 10 µM
1,CNC(=O)c1cc(Oc2ccc3nc(NC(=O)c4cc(C(F)(F)F)cc(C(F)(F)F)c4)sc3c2)ccn1,15%
